Experimental findings from ChEMBL document CHEMBL1149160, “Bisguanidine, bis(2-aminoimidazoline), and polyamine derivatives as potent and selective chemotherapeutic agents against Trypanosoma brucei rhodesiense. Synthesis and in vitro evaluation” (J Med Chem, 2004) are described below.

Experiment [1] has as its system Trypanosoma brucei rhodesiense. The experiment can be described thus: In vitro antitrypanosomal activity against Trypanosoma brucei rhodesiense. It is filed as functional, organism-based.
For experiment [2], the system named is L6. The experiment can be described thus: Cytotoxic activity against rat L6 cells. It is filed as cell-based.
The subject of experiment [3] is L6. The experiment can be described thus: Ratio of cytotoxicity against L6 cells to that of antitrypanosomal activity against Trypanosoma brucei rhodesiense. It counts as functional.

Bounds are passed on as bounds.

One may read the IC50 as the concentration at which inhibition is half-maximal. Read a low IC50 as higher potency. `CCCNCCCNC1=NCCN1` gave a 50% inhibitory concentration (IC50) in experiment [1] of 113 µM.

As for `O=C(NCCCN1CCN(C(=O)OCc2ccccc2)C1)OCc1ccccc1`, the results for the IC50 in experiment [1] and in experiment [2] were 3.9 µM and 106 µM, respectively. For the same compound, the Ratio in experiment [3] turned out to be 27.

Consider `CC(C)(C)OC(=O)/N=C(/C=C(/O)OC(C)(C)C)Nc1ccc(Nc2ccc(N/C(=N\C(=O)OC(C)(C)C)NC(=O)OC(C)(C)C)cc2)cc1`, for which the results for the IC50 in experiment [1] and in experiment [2] were 0.47 µM and 3.7 µM, respectively. In addition, the Ratio in experiment [3] amounted to 7.9.

`CC(=O)OCCN(CCCNC(=O)OCc1ccccc1)CCNC(=O)OCc1ccccc1`: the results for the IC50 in experiment [1] and in experiment [2] were 7.1 µM and over 191 µM, respectively. For the same compound, the Ratio in experiment [3] is listed as over 26.

As for `N=C(N)Nc1ccc(C(=O)c2ccc(NC(=N)N)cc2)cc1`, the Ratio in experiment [3] came out at 13.1.

In the case of `C(CCCCNC1=NCCN1)CCCNC1=NCCN1`, the IC50 in experiment [1] is 0.453 µM; in experiment [2], 4.2 µM. In addition, the Ratio in experiment [3] stood at 9.4.

In turn, `NCCCN(CCN)CCc1c[nH]c2ccccc12` returned a concentration for half-maximal inhibition (IC50) in experiment [1] of 13.8 µM.

For `C(CCCCNC1=NCCN1)CCCCNC1=NCCN1`, the IC50 in experiment [1] is 0.225 µM; in experiment [2] it was 16 µM. Also, the Ratio in experiment [3] worked out at 71.

For `N=C(N)Nc1ccc(S(=O)(=O)c2ccc(NC(=N)N)cc2)cc1`, the Ratio in experiment [3] is listed as over 51.

Turning to `CCCCC[P+](CCCCC)(CCCCC)c1ccc(C(=O)c2ccc([P+](CCCCC)(CCCCC)CCCCC)cc2)cc1.[Br-].[Br-]`, the half-maximal inhibitory concentration (IC50) in experiment [1] was 0.414 µM; in experiment [2] it was 11.8 µM. For the same compound, the Ratio in experiment [3] is on record as 28.5.

Turning to `O=C(NCCCN(CCNC(=O)OCc1ccccc1)CCc1c[nH]c2ccccc12)OCc1ccccc1`, the IC50 in experiment [1] is 1 µM; in experiment [2], 7.8 µM. Moreover, in experiment [3], the Ratio is given as 7.8.

For `O=C(c1ccc(Br)cc1)c1ccc(Br)cc1`, the IC50 was 25.9 µM in experiment [1] and over 244 µM in experiment [2]. Besides, the Ratio in experiment [3] was over 9.4.

Take `O=C(NCCCN(CCNC(=O)OCc1ccccc1)CCc1ccccc1)OCc1ccccc1`: the IC50 in experiment [1] is 3.88 µM; in experiment [2], 24.7 µM. The Ratio in experiment [3] worked out at 6.4.

In the case of `N=C(N)Nc1ccc(Cc2ccc(NC(=N)N)cc2)cc1`, the Ratio in experiment [3] is 17.4.

As to `CC(C)(C)OC(=O)N1CCC(N2CCN(C(=O)OC(C)(C)C)CC2)CC1`, it took 30.3 µM to reach half-maximal inhibition in experiment [1] (IC50).

As for `CC(C)(C)OC(=O)NCC/N=C(\S)N1CCC(N2CCN(/C(S)=N\CCNC(=O)OC(C)(C)C)CC2)CC1`, the IC50 in experiment [1] amounted to 12.6 µM.

`CC(C)(C)OC(=O)N1CCN(C(=O)OC(C)(C)C)C1=Nc1ccc(S(=O)(=O)c2ccc(N=C3N(C(=O)OC(C)(C)C)CCN3C(=O)OC(C)(C)C)cc2)cc1`: the Ratio in experiment [3] was 21.7.

Take `O=C(CN1CCCN(C(=O)OCc2ccccc2)C1)OCc1ccccc1`: the 50% inhibitory concentration (IC50) in experiment [1] was 4.78 µM; in experiment [2], 89 µM. Further, the Ratio in experiment [3] was 18.6.

On to `C(CCCCCCNC1=NCCN1)CCCCCNC1=NCCN1`, for which the IC50 in experiment [1] was 0.107 µM; in experiment [2], 2.35 µM. The Ratio in experiment [3] is on record as 22.

`N=C(N)NCCCCCCCCCCCCNC(=N)N`: the IC50 was 0.047 µM in experiment [1] and 0.63 µM in experiment [2]. In experiment [3], the Ratio is on record as 13.

`N=C(N)NCCCCCCCCCNC(=N)N`: the figures for the IC50 in experiment [1] and in experiment [2] were 0.049 µM and over 265 µM, respectively. Further, in experiment [3], the Ratio was over 5294.

The compound `O=[N+]([O-])c1ccc(-c2ccc([N+](=O)[O-])cc2)cc1` had an IC50 in experiment [1] of 41.8 µM.

On to `CN(CCN)CCCN`, for which the IC50 in experiment [1] turned out to be 61.8 µM.

Regarding `CN(CCCNC(=O)OCc1ccccc1)CCNC(=O)OCc1ccccc1`, the IC50 in experiment [1] turned out to be 3.1 µM; in experiment [2], 130 µM. The Ratio in experiment [3] is reported as 41.

Take `c1cc(-c2ccc(NC3=NCCN3)cc2)ccc1NC1=NCCN1`: the IC50 in experiment [1] was 0.118 µM; in experiment [2], 104 µM. For the same compound, the Ratio in experiment [3] was 881.

`CCCCCCCCCN=C(N)N` displayed an IC50 in experiment [1] of 19.9 µM.

As to `O=C(c1ccc(NC2=NCCN2)cc1)c1ccc(NC2=NCCN2)cc1`, the Ratio in experiment [3] is listed as over 104.

Regarding `c1cc(Nc2ccc(NC3=NCCN3)cc2)ccc1NC1=NCCN1`, the Ratio in experiment [3] is listed as 3072.

Consider `c1c[nH]c(Nc2ccc(Nc3ccc(Nc4ncc[nH]4)cc3)cc2)n1`, for which the figures for the IC50 in experiment [1] and in experiment [2] were 1.4 µM and 113 µM, respectively. In addition, the Ratio in experiment [3] worked out at 80.7.

In the case of `N=C(N)Nc1ccc(-c2ccc(NC(=N)N)cc2)cc1`, the figures for the concentration for half-maximal inhibition (IC50) in experiment [1] and in experiment [2] were 0.27 µM and 46.4 µM, respectively. Moreover, the Ratio in experiment [3] was determined as 172.

In experiment [1], `N=C(N)NCCNCCNC(=N)N` registered an IC50 of 16.1 µM.

In turn, `CC(C)(C)OC(=O)/N=C(\NC(=O)OC(C)(C)C)Nc1cccc(N2CCN(c3cccc(N/C(=N\C(=O)OC(C)(C)C)NC(=O)OC(C)(C)C)c3)CC2)c1` registered an IC50 in experiment [1] of 13.8 µM.

As for `NCCCN(CCN)CCc1ccccc1`, the IC50 in experiment [1] was found to be 17.4 µM; in experiment [2] it was 214 µM. Further, the Ratio in experiment [3] is 12.

Consider `CCOC(CNC(=N)Nc1ccc(Nc2ccc(NC(=N)NCC(OCC)OCC)cc2)cc1)OCC`, for which the Ratio in experiment [3] is listed as over 767.

As for `C(CNCCNC1=NCCN1)CNC1=NCCN1`, the IC50 in experiment [1] turned out to be 69.1 µM.

Consider `CCCCCCCCN=C(N)N`, for which the IC50 in experiment [1] was 49.1 µM.

As for `Nc1ccc(-c2ccc(N)cc2)cc1` [BENZIDINE], the concentration for half-maximal inhibition (IC50) was 1.42 µM in experiment [1] and over 217 µM in experiment [2]. In addition, the Ratio in experiment [3] is given as over 152.

`C1CCC(NC(=NCCCNCCN=C(NC2CCCCC2)NC2CCCCC2)NC2CCCCC2)CC1`: the IC50 in experiment [1] came to 2.4 µM.

`Nc1nc(N)nc(Nc2ccc([As]3SCC(CO)S3)cc2)n1` (stereo unspecified) [MELARSOPROL] displayed an IC50 in experiment [1] of 5.5 µM. For the same compound, in experiment [3], the Ratio is given as 3456.

The compound `C(CCCNC1=NCCN1)CCNC1=NCCN1` gave an IC50 in experiment [1] of 19.3 µM.

Turning to `N=C(N)NCCCNCCNC(=N)N`, 21.4 µM corresponded to half-maximal inhibition in experiment [1] (IC50).

In the case of `CCOC(CNC(=N)Nc1ccc(Cc2ccc(NC(=N)NCC(OCC)OCC)cc2)cc1)OCC`, the Ratio in experiment [3] is over 554.

As to `C(CNCCCNC1=NCCN1)CNC1=NCCN1`, the 50% inhibitory concentration (IC50) in experiment [1] came to 29.7 µM.

Consider `c1ccc(CCN(CCCNC2=NCCN2)CCNC2=NCCN2)cc1`, for which half-maximal inhibition in experiment [1] (IC50) was put at 27.6 µM.

Regarding `CC(C)(C)OC(=O)N1CCN(C(=O)OC(C)(C)C)C1=Nc1ccc(Nc2ccc(N=C3N(C(=O)OC(C)(C)C)CCN3C(=O)OC(C)(C)C)cc2)cc1`, in experiment [3], the Ratio was 202.

As for `C1CNC(NCCNCCNC2=NCCN2)=N1`, in experiment [1], it took 84.4 µM to reach half-maximal inhibition (IC50).

Take `O=C(NCCCN(CCO)CCNC(=O)OCc1ccccc1)OCc1ccccc1`: the concentration for half-maximal inhibition (IC50) in experiment [1] is 14 µM; in experiment [2], 116 µM. The Ratio in experiment [3] came out at 8.3.

`CC(C)(C)OC(=O)/N=C(\NC(=O)OC(C)(C)C)Nc1ccc(S(=O)(=O)c2ccc(N/C(=N/C(=O)OC(C)(C)C)NC(=O)OC(C)(C)C)cc2)cc1`: the IC50 in experiment [1] stood at 24.4 µM.

As to `CC(C)(C)OC(=O)N1CCN(C(=O)OC(C)(C)C)C1=Nc1ccc(C(=O)c2ccc(N=C3N(C(=O)OC(C)(C)C)CCN3C(=O)OC(C)(C)C)cc2)cc1`, the IC50 in experiment [1] turned out to be 7.2 µM.

`N=C(N)c1ccc(/N=N/Nc2ccc(C(=N)N)cc2)cc1` [DIMINAZENE DIACETURATE]: the midpoint of inhibition in experiment [1], the IC50, lay at 0.0089 µM.

On to `C1CC(N2CCNCC2)CCN1`, for which half-maximal inhibition in experiment [1] (IC50) was put at 57.9 µM.

For the compound `CC(C)(C)OC(=O)N1CCN(C(=O)OC(C)(C)C)C1=Nc1ccc(Cc2ccc(N=C3N(C(=O)OC(C)(C)C)CCN3C(=O)OC(C)(C)C)cc2)cc1`, in experiment [1], the IC50 came to 11.6 µM.

For `N=C(N)NCCCCCCNC(=N)N`, the IC50 in experiment [1] is 8.05 µM; in experiment [2], over 302 µM. Moreover, the Ratio in experiment [3] is over 37.

For `C1CCC(/N=C(\NC2CCCCC2)N(CCCN=C(NC2CCCCC2)NC2CCCCC2)CCN=C(NC2CCCCC2)NC2CCCCC2)CC1`, the IC50 is 0.98 µM in experiment [1] and over 83 µM in experiment [2]. For the same compound, the Ratio in experiment [3] is recorded as over 82.

Consider `N=C(N)Nc1ccc(Nc2ccc(NC(=N)N)cc2)cc1`, for which inhibition in experiment [1] was half-maximal at 0.022 µM (IC50). The Ratio in experiment [3] came out at 29.5.

As to `CC(C)(C)OC(=O)/N=C(/C=C(/O)OC(C)(C)C)Nc1ccc(Cc2ccc(N/C(=N\C(=O)OC(C)(C)C)NC(=O)OC(C)(C)C)cc2)cc1`, the IC50 in experiment [1] worked out at 31.7 µM.

With `N=C(N)NCCCCCCCCNC(=N)N`, the IC50 in experiment [1] was 0.251 µM; in experiment [2], over 276 µM. Moreover, the Ratio in experiment [3] is listed as over 1100.

`CCCCCCCCCCCCNC(=N)N` [DODINE]: the figures for the IC50 in experiment [1] and in experiment [2] were 11 µM and 19.6 µM, respectively. Further, in experiment [3], the Ratio is reported as 1.8.

In experiment [1], `N=C(N)NCCCNCCCNC(=N)N` yielded an IC50 of 21.2 µM.

Consider `CN(CCCNC1=NCCN1)CCNC1=NCCN1`, for which, in experiment [1], the IC50 came out at 46.6 µM.

The compound `N=C(N)c1cccc(/C=N/N=C(\N)N/N=C/c2cccc(C(=N)N)c2)c1` gave a concentration for half-maximal inhibition (IC50) in experiment [1] of 4.5 µM.

`C1CNC(N2CCC(N3CCN(C4=NCCN4)CC3)CC2)=N1` yielded an IC50 in experiment [1] of 71.2 µM.

For the compound `c1cc(NC2=NCCN2)ccc1Cc1ccc(NC2=NCCN2)cc1`, the Ratio in experiment [3] is on record as 71.

As for `N=C(N)NCCCN(CCNC(=N)N)CCc1ccccc1`, the figures for the IC50 in experiment [1] and in experiment [2] were 4.5 µM and over 199 µM, respectively. For the same compound, the Ratio in experiment [3] is over 43.
